Laboratory results as given in patent publication EP4000606A1, “COMPOUNDS FOR CORONAVIRUS INFECTION TREATMENT AND/OR PREVENTION” (priority 2020, dated 2022).
Like-named read-outs stand apart in the source and are kept apart here.

System: SARS-CoV-2
Test: microbe, parasite or virus in culture
Assay type: cell-based
[1] = Severe acute respiratory syndrome coronavirus 2, 120 h, half maximal concentration able to recover the cytopathic effect of infection, VeroE6-EGFP cells, 0.01 MOI, 5 days, 8 concentrations, read-out: IC50
[2] = Severe acute respiratory syndrome coronavirus 2, 120 h

Row | Compound | Maximum confluence reached (%) (5 days) | further results
1 | Cn1nc(C(C)(C)C)cc1C(=O)N[C@@H](Cc1cccc(Cl)c1)C(=O)NCC#N [compound 63, 3-tert-butyl-N-{(1S)-1-(3-chlorobenzyl)-2-[(cyanomethyl)amino]-2-oxoethyl}-1-methyl-1H-pyrazole-5-carboxamide] | 96.18 | 
2 | CC(C)(O)CNc1ncc(-c2ccnc(Nc3ccnc(Cl)c3)n2)c(CC2CC2)n1 [compound 60, 1-[[2-[(2-chloro-4-pyridinyl)amino]-4'-(cyclopropylmethyl) [4,5'-bipyrimidin]-2'-yl]amino]-2-methyl-2-propanol] | 45.62 | 
3 | COc1cc2c(NC3CCN(C4CCCCC4)CC3)nc(N3CCCN(C(C)C)CC3)nc2cc1OCCCN1CCCCC1 [compound 59, N-(1-Cyclohexylpiperidin-4-yl)-6-methoxy-7-[3-(1-piperidinyl)propoxy]-2-[4-(propan-2-yl)perhydro-1,4-diazepin-1-yl]quinazolin-4-amine] | 80.08 | 
4 | CC(C)(C)c1cc(C=C(C#N)C#N)cc(C(C)(C)C)c1O [compound 66, (3,5-Di-tert-butyl-4-hydroxybenzylidene)malononitrile] | 47.6 | 
5 | CC(C)COCC(CN(Cc1ccccc1)c1ccccc1)N1CCCC1.Cl.O (stereo not drawn) [compound 78, 1-[1-(N-Benzylanilino)-3-isobutoxy-2-propyl]pyrrolidine monohydrochloride monohydrate] | 30.41 | 
6 | CN(Cc1cnc2nc(N)nc(N)c2n1)c1ccc(C(=O)N[C@@H](CCC(=O)O)C(=O)O)cc1 [compound 1, N-[4-[N-(2,4-Diaminopteridin-6-ylmethyl)-N-methylamino]benzoyl]-L-glutamic acid] |  | IC50 [1]: 0.05 µM; Maximum confluence reached (%) (confluence of SARS-CoV-2 infected VeroE6-EGFP cells after test compound treatment compared to control wells, 5 days): 64%
7 | CC(C)N1CCN(c2ccc(C(=O)c3c(-c4ccc(O)cc4)sc4cc(O)ccc34)cc2)CC1 [compound 87, 1-[6-Hydroxy-2-(4-hydroxyphenyl)-1-benzothien-3-yl]-1-[4-(4-isopropylpiperazin-1-yl)phenyl]methanone] | 41.04 | 
8 | CCN(CC)CCOc1ccc(C(=C(Cl)c2ccccc2)c2ccccc2)cc1.O=C(O)CC(O)(CC(=O)O)C(=O)O [compound 82, 2-[4-(2-Chloro-1,2-diphenylvinyl)phenoxy]-N,N-diethylethanamine citrate] | 54.73 | 
9 | O=C(Nc1ccc(Cl)c(Cl)c1)Nc1ccc(Cl)c(Cl)c1 [compound 72, 1,3-Bis(3,4-dichlorophenyl)urea] | 45.87 | 
10 | CN(C)CCC=C1c2ccccc2C=Cc2ccccc21.Cl [compound 90, 3-(5H-Dibenzo[a,d]cyclohepten-5-ylidene)-N,N-dimethylpropan-1-amine hydrochloride] |  | Maximum confluence reached (%): 70,19%; IC50 [2]: 12.1 µM
11 | C[C@H]1CCC/C=C/[C@@H]2C[C@H](O)C[C@H]2[C@H](O)/C=C/C(=O)O1 (relative stereo) [compound 47, (1R,2S,7S,13S,15S)-2,15-Dihydroxy-7-methyl-6-oxabicyclo[11.3.0]hexadeca-3(E),11(E)-dien-5-one [1S-(1R*,2E,6R*,10E,11aR*,13R*,14a S*)]-1,6,7,8,9,11a,12,13,14,14a-Decahydro-1,13-dihydroxy-6-methyl-4H-cyclopent[f]oxacyclotridecin-4-one] |  | Emax (Severe acute respiratory syndrome coronavirus 2, 120 h, 5 days, read-out: Maximum confluence reached (%)): 122%
12 | Cc1ccc(NC(=O)Nc2cc(C(F)(F)F)ccc2F)cc1Nc1ccc2c(c1)NC(=O)C2=Cc1ccc[nH]1 [compound 92, 1-[2-Fluoro-5-(trifluoromethyl)phenyl]-3-[4-methyl-3-[2-oxo-3-(1H-pyrrol-2-ylmethylene)-2,3-dihydro-1H-indol-6-ylamino]phenyl]urea] | 75.5 | IC50 [2]: 5.23 µM
13 | CCC(C/C=C/c1ccccc1)(c1ccccc1)N(C)CC1CC1 (single isomer, unassigned; (+)) [compound 89, (+)-N-(Cyclopropylmethyl)-N-[1-ethyl-1,4-diphenyl-3(E)-butenyl]-N-methylamine] | 58.34 | IC50 [2]: 11.2 µM
14 | CN1CCN(CC/C=C2/c3ccccc3Sc3ccc(S(=O)(=O)N(C)C)cc32)CC1 [compound 109, (Z)-N,N-Dimethyl-9-[3-(4-methyl-1-piperazinyl)propylidene]thioxant hene-2-sulfonamide] | 36.55 | 
15 | CC(C)(C)c1cc(C=C(C#N)C#N)cc(Br)c1O [compound 99, 2-(3-Bromo-5-tert-butyl-4-hydroxybenzylidene)propanedini trile 2-(3-Bromo-5-tert-butyl-4-hydroxybenzylidene)malononitrile] | 37.27 | IC50 [2]: 7.23 µM
16 | CN1CCN(CCCN2c3ccccc3Sc3ccc(C(F)(F)F)cc32)CC1.Cl.Cl [compound 94, 10-[3-(4-Methylpiperazin-1-yl)propyl]-2-(trifluoromethyl)-10H-phenothiazine dihydrochloride] | 37.97 | 

Row | Compound | Maximum confluence reached (%) (5 days) | further results
17 | COc1cc2c(NC3CCN(C(C)C)CC3)nc(N3CCC(F)(F)CC3)nc2cc1OCCCN1CCCC1 [compound 95, 2-(4,4-Difluoropiperidin-1-yl)-6-methoxy-N-[1-(propan-2-yl)piperidin-4-yl]-7-[3-(pyrrolidin-1-yl)propoxy]quinazolin-4-amine] | 31.06 | 
18 | CN1[C@@H]2CC[C@H]1C[C@@H](OC(=O)c1cc(Cl)cc(Cl)c1)C2 [compound 36, 1alphaH,3alpha,5alphaH-Tropan-3-yl-3,5-dichlorobenzoate; 3,5-Dichlorobenzoic acid endo-8-methyl-8-azabicyclo[3.2.1]oct-3-yl ester] | 69.05 | IC50 [2]: 43.9 µM
19 | COc1cc(NCc2ccc3nc(N)nc(N)c3c2C)cc(OC)c1OC [compound 2, 2,4-Diamino-5-methyl-6-[(3,4,5-trimethoxyanilino)methyl]quinaz oline 5-Methyl-6-[[(3,4,5-trimetoxyphenyl)amino]methyl]-2,4-quinazolinediamine] | 78.23 | 
20 | COc1cc2c(N3CCN(C(=O)Nc4ccc(OC(C)C)cc4)CC3)ncnc2cc1OCCCN1CCCCC1 [compound 35, N-(4-Isopropoxyphenyl)-4-[6-methoxy-7-[3-(1-piperidinyl)propoxy]quinazolin-4-yl]piperazine-1-carboxamide] | 80.09 | 
21 | CCN(CC)CCO[C@H]1CC[C@@]2(C)C(=CC[C@@H]3[C@@H]2CC[C@]2(C)C(=O)CC[C@@H]32)C1.Cl [compound 80, 3beta-[2-(Diethylamino)ethoxy]androst-5-en-17-one hydrochloride] | 44.66 | 
22 | Cc1cccc(Nc2nc(-c3ccncc3)cs2)c1 [compound 85, N-(3-Methylphenyl)-4-(4-pyridyl)thiazol-2-amine] | 47.81 | 
23 | (4R,4aS)-18-Ethenyl-4,4a-dihydro-3,4-bis(methoxycarbonyl)-4a,8,14,19-tetramethyl-24H,26H-benzo[b]porphine-9,13-dipropanoic acid monomethyl ester [compound 39] | 89.5 | IC50 (read-out: IC50): 30 µM
24 | COc1ccc2cc1Oc1ccc(cc1)C[C@H]1c3cc(c(OC)cc3CCN1C)Oc1c(OC)c(OC)cc3c1[C@H](C2)N(C)CC3 [compound 79, (1beta)-(S,S)-6,6',7,12-Tetramethoxy-2,2'-dimethylberbaman] | 99.64 | 
25 | Nc1ncc(-c2ccnc(Nc3ccncc3)n2)c(CC2CC2)n1 [compound 20, 4'-(Cyclopropylmethyl)-N2-(pyridin-4-yl)-4,5'-bipyrimidine-2,2'-diamine] | 98.17 | 
26 | N#Cc1cccc(C#N)c1-c1nc2c3ccc(Cl)cc3c3ccccc3c2[nH]1 [compound 64, 2-(6-Chloro-1H-phenanthro[9,10-d]imidazol-2-yl)benzene-1,3-dicarbonitrile] | 98.48 | 
27 | O=[N+]([O-])c1ccc(N/N=C/c2sc(N3CCOCC3)nc2-c2ccccc2)c(S(=O)(=O)Nc2ccccc2Cl)c1 [compound 73, N-(2-chlorophenyl)-2-[(2E)-2-[(2-morpholin-4-yl-4-phenyl-1,3-thiazol-5-yl)methylidene]hydrazinyl]-5-nitrobenzenesulfonamide] | 53.9 | 
28 | CCCCOCCOc1ccc(-c2ccc3c(c2)C=C(C(=O)Nc2ccc([S@@+]([O-])Cc4cncn4CCC)cc2)CCCN3CC(C)C)cc1 [compound 65, (-)-(S)-8-[4-(2-Butoxyethoxy)phenyl]-1-isobutyl-N-[4-(1-propyl-1H-imidazol-5-ylmethylsulfinyl)phenyl]-1,2,3,4-tetrahydro-1-benzazocine-5-carboxamide] | 70.92 | IC50 [1]: 55 µM
29 | CC(C)C[C@H](NC(=O)CNC(=O)c1cc(Cl)ccc1Cl)B(O)O [compound 108, 1(R)-[2-(2,5-Dichlorobenzamido)acetamido]-3-methylbutylboronic acid] | 30.79 | IC50 [2]: 135 µM
30 | CC1=NN(c2ccc(C)c(C)c2)C(=O)/C1=N\Nc1cccc(-c2cccc(C(=O)O)c2)c1O [compound 37, 3'-[2(Z)-[1-(3,4-Dimethylphenyl)-3-methyl-5-oxo-4,5-dihydro-1H-pyrazol-4-ylidene]hydrazino]-2'-hydroxybiphenyl-3-carboxylic acid] | 63.17 | IC50 [2]: 58.1 µM
31 | Cc1nc(N)nc(N)c1-c1ccc(Cl)c(Cl)c1 [compound 41, 5-(3,4-Dichlorophenyl)-6-methylpyrimidine-2,4-diamine] | 58.02 | 
32 | Nc1nc(N)c2nc(CNc3ccc(C(=O)N[C@@H](CCC(=O)O)C(=O)O)cc3)cnc2n1 [compound 10, N-[4-(2,4-diamino-6-pteridinylmethylamino)benzolyl]-L-glutamic acid] | 72.54 | 
